Read-outs that look alike come from different tables or passages of the source.
Key:
Type in all cases: in vivo
[1] = system: Apis mellifera; conditions: 150 g a.s./ha
Excerpt: (§1) Der Test wurde gemäß EPPO (European Plant Protection Organisation) Leitlinie 170 wie folgt durchgeführt:
Die Mortalität von Arbeiterbienen vor dem Bienenstock wird mittels einer Falle für tote Bienen (dead bee trap) bestimmt. Die Falle besteht aus Maschendraht und ist vor dem Bienenstock angebracht. Einzelne, lebende Bienen können die Maschen des Drahts passieren, der Transport toter Bienen durch die Maschen ist nicht möglich, weswegen tote Bienen sich in der Falle ansammeln. Tabelle 1 (siehe auch Figur 1)

[2] = system: Apis mellifera; experiment: Tunnel test / spray application / bees: acute mortality of pupae in front of the hive; conditions: for Zahl toter Puppen: 150 g a.s./ha
Excerpt: as §1
Tabelle 2 (siehe auch Figur 2)

[3] = system: Apis mellifera; experiment: Tunnel test / spray application / bees: foraging activity; conditions: 150 g a.s./ha
Excerpt: as §1
Während einer Minute werden in einem abgegrenzten Bereich von 2 x 1 m^2 die Bienen gezählt, die auf Blüten absitzen. Tabelle 3 (siehe auch Figur 3)

[4] = system: Apis mellifera; experiment: Tunnel test / spray application / bees: brood development (share of comb cells); conditions: 150 g a.s./ha
Excerpt: as §1
Über alle Waben eines Bienenstocks wird der jeweilige Anteil an Zellen bestimmt, der durch Pollen, Nektar, Eier, Larven oder Puppen belegt ist bzw. leer ist. […]

[5] = system: Apis mellifera; experiment: Greenhouse test / residue test / bees: mortality after contact with treated tomato leaves; conditions: 100 g a.s./ha
Excerpt: Der Versuch wurde wie folgt durchgeführt:
Die Tomatenpflanzen wurden im Gewächshaus mit den Testverbindungen bzw. der Referenzsubstanz behandelt (Spritzappliaktion, 3 fache Wiederholung). 1, 3, 6 und 13 Tage nach Behandlung (DAA) wurden Blätter entnommen (je 5 Blattproben pro Behandlung) und in Boxen gegeben. In jede Box wurden 10 Bienen transferiert und die Boxen wurden unter kontrollierten Bedingungen aufbewahrt, wobei die Bienen mit Zuckerlösung gefüttert wurden. 24, 48 und 72 nach Transfer der Bienen wurde deren Mortalität bestimmt. Tabelle 9 (siehe auch Figur 9)

[6] = leaves taken 1 Tag nach Behandlung, 24 h contact
[7] = leaves taken 1 Tag nach Behandlung, 48 h contact
[8] = leaves taken 1 Tag nach Behandlung, 72 h contact
[9] = leaves taken 3 Tage nach Behandlung, 24 h contact
[10] = leaves taken 3 Tage nach Behandlung, 48 h contact
[11] = leaves taken 3 Tage nach Behandlung, 72 h contact
[12] = leaves taken 6 Tage nach Behandlung, 24 h contact
[13] = leaves taken 6 Tage nach Behandlung, 48 h contact
[14] = leaves taken 6 Tage nach Behandlung, 72 h contact
[15] = leaves taken 13 Tage nach Behandlung, 24 h contact
[16] = leaves taken 13 Tage nach Behandlung, 48 h contact
[17] = leaves taken 13 Tage nach Behandlung, 72 h contact

CCOC(=O)NCCOc1ccc(Oc2ccccc2)cc1 [Fenoxycarb, reference compound] was tested, and the “Zahl toter Arbeiterbienen” value ([1]; 0 DAA b (15:15 Uhr)) was 0, the “Zahl toter Arbeiterbienen” value ([1]; 0 DAA c (17:15 Uhr)) was 0 and the “Zahl toter Arbeiterbienen” value ([1]; 1 DAA) was 1,3. The “Zahl toter Arbeiterbienen” value ([1]; 2 DAA) was 0,7, the “Zahl toter Arbeiterbienen” value ([1]; 3 DAA) was 0 and the “Zahl toter Arbeiterbienen” value ([1]; 4 DAA) was 2. The “Zahl toter Arbeiterbienen” value ([1]; 5 DAA) was 1,3, the “Zahl toter Arbeiterbienen” value ([1]; 6 DAA) was 3 and the “Zahl toter Arbeiterbienen” value ([1]; 11 DAA) was 1. For the same compound, the “Zahl toter Arbeiterbienen” value ([1]; -3 DAA (before application)) was 1, the “Zahl toter Puppen” value ([2]; 0 DAA c (17:15 Uhr)) was 0 and the “Zahl toter Puppen” value ([2]; 1 DAA) was 0. The “Zahl toter Puppen” value ([2]; 2 DAA) was 0, the “Zahl toter Puppen” value ([2]; 5 DAA) was 0 and the “Zahl toter Puppen” value ([2]; 6 DAA) was 0. For the same compound, the “Zahl toter Puppen” value ([2]; 11 DAA) was 9, the “Zahl toter Puppen” value ([2]; 14 DAA) was 16,7 and the “Zahl toter Puppen” value ([2]; 18 DAA) was 26,7. The “Zahl toter Puppen” value ([2]; 21 DAA) was 0, the “Zahl toter Puppen” value ([2]; 25 DAA) was 1 and the “Zahl toter Puppen” value ([2]; -3 DAA (before application)) was 0. The “Mortalität von Puppen vor dem Bienenstock” value ([2]; result in words, tunnel test, spray, I-5 75 und 150 g a.s./ha, Fenoxycarb 150 g a.s./ha) was 11-18 Tage nach Applikation eine Mortalität von Puppen, the “Aktivität der Nahrungssuche, Zahl der Bienen / min / m^2” value ([3]; 0 DAA a (09:30 Uhr)) was 26,2 Bienen / min / m^2 and the “Aktivität der Nahrungssuche, Zahl der Bienen / min / m^2” value ([3]; 0 DAA c (14:15 Uhr)) was 38,7 Bienen / min / m^2. For the same compound, the “Aktivität der Nahrungssuche, Zahl der Bienen / min / m^2” value ([3]; 0 DAA e (17:15 Uhr)) was 46 Bienen / min / m^2, the “Aktivität der Nahrungssuche, Zahl der Bienen / min / m^2” value ([3]; 1 DAA b (15:30 Uhr)) was 19 Bienen / min / m^2 and the “Aktivität der Nahrungssuche, Zahl der Bienen / min / m^2” value ([3]; 2 DAA) was 32,3 Bienen / min / m^2. For the same compound, the “Aktivität der Nahrungssuche, Zahl der Bienen / min / m^2” value ([3]; 3 DAA) was 38,7 Bienen / min / m^2, the “Aktivität der Nahrungssuche, Zahl der Bienen / min / m^2” value ([3]; 6 DAA) was 38,8 Bienen / min / m^2 and the “Aktivität der Nahrungssuche, Zahl der Bienen / min / m^2” value ([3]; -1 DAA (before application)) was 27,3 Bienen / min / m^2. For the same compound, the “Aktivität der Nahrungssuche, Zahl der Bienen / min / m^2” value ([3]; -2 DAA (before application)) was 33,7 Bienen / min / m^2, the “Aktivität der Nahrungssuche, Zahl der Bienen / min / m^2” value ([3]; -3 DAA (before application)) was 25 Bienen / min / m^2 and the “Anteil an Zellen: Eier” value ([4]; 1 Tag vor Applikation) was 12,5%. For the same compound, the “Anteil an Zellen: Larven” value ([4]; 1 Tag vor Applikation) was 14,2%, the “Anteil an Zellen: Leer” value ([4]; 1 Tag vor Applikation) was 25,8% and the “Anteil an Zellen: Nektar” value ([4]; 1 Tag vor Applikation) was 13,3%. For the same compound, the “Anteil an Zellen: Pollen” value ([4]; 1 Tag vor Applikation) was 2,2%, the “Anteil an Zellen: Puppen” value ([4]; 1 Tag vor Applikation) was 31,9% and the “Anteil an Zellen: Eier” value ([4]; 6 Tage nach Applikation) was 12,2%. For the same compound, the “Anteil an Zellen: Larven” value ([4]; 6 Tage nach Applikation) was 0,3%, the “Anteil an Zellen: Leer” value ([4]; 6 Tage nach Applikation) was 29,7% and the “Anteil an Zellen: Nektar” value ([4]; 6 Tage nach Applikation) was 20,8%. For the same compound, the “Anteil an Zellen: Pollen” value ([4]; 6 Tage nach Applikation) was 6,7%, the “Anteil an Zellen: Puppen” value ([4]; 6 Tage nach Applikation) was 30,3% and the “Anteil an Zellen: Eier” value ([4]; 14 Tage nach Applikation) was 18,3%. For the same compound, the “Anteil an Zellen: Larven” value ([4]; 14 Tage nach Applikation) was 10,6%, the “Anteil an Zellen: Leer” value ([4]; 14 Tage nach Applikation) was 52,2% and the “Anteil an Zellen: Nektar” value ([4]; 14 Tage nach Applikation) was 9,2%. The “Anteil an Zellen: Pollen” value ([4]; 14 Tage nach Applikation) was 5,3%, the “Anteil an Zellen: Puppen” value ([4]; 14 Tage nach Applikation) was 4,4% and the “Anteil an Zellen: Eier” value ([4]; 27 Tage nach Applikation) was 18,6%. The “Anteil an Zellen: Larven” value ([4]; 27 Tage nach Applikation) was 7,2%, the “Anteil an Zellen: Leer” value ([4]; 27 Tage nach Applikation) was 23,1% and the “Anteil an Zellen: Nektar” value ([4]; 27 Tage nach Applikation) was 21,9%. The “Anteil an Zellen: Pollen” value ([4]; 27 Tage nach Applikation) was 4,7%, the “Anteil an Zellen: Puppen” value ([4]; 27 Tage nach Applikation) was 24,4% and the “Zahl der Larven” value ([4]; result in words, 6 Tage nach Applikation) was “starke Abnahme”. For the same compound, the “Zahl der Puppen” value ([4]; result in words, 14 Tage nach Applikation) was “starke Abnahme”.

For O=C1C=C(N(Cc2ccc(Cl)nc2)C2CC2)CO1 [I-9, 4-{[(6-Chlorpyrid-3-yl)methyl](cyclopropyl)amino}furan-2(5H)-on], the Mortalität [5, 6] was 6%, the Mortalität [5, 7] was 9% and the Mortalität [5, 8] was 13%. The Mortalität [5, 9] was 2%, the Mortalität [5, 10] was 3% and the Mortalität [5, 11] was 4%. The Mortalität [5, 12] was 1%, the Mortalität [5, 13] was 2% and the Mortalität [5, 14] was 5%. For the same compound, the Mortalität [5, 15] was 8,7%, the Mortalität [5, 16] was 11% and the Mortalität [5, 17] was 12%.

CN(Cc1ccc(Cl)nc1)C1=CC(=O)OC1 [I-10, 4-{[(6-Chlorpyrid-3-yl)methyl](methyl)amino}furan-2(5H)-on] was tested, and the Mortalität [5, 6] was 5%, the Mortalität [5, 7] was 5% and the Mortalität [5, 8] was 6%. For the same compound, the Mortalität [5, 9] was 3%, the Mortalität [5, 10] was 7% and the Mortalität [5, 11] was 8%. For the same compound, the Mortalität [5, 12] was 3%, the Mortalität [5, 13] was 4% and the Mortalität [5, 14] was 7%. The Mortalität [5, 15] was 6,7%, the Mortalität [5, 16] was 6,7% and the Mortalität [5, 17] was 6,7%.
